# Patent US6962920B2, “Pyrimidine derivatives and methods of making and using these derivatives” (Duquesne University of the Holy Ghost, priority 1992, dated 2005)
# Assays:
# [1] = molecular target: T1, CCRF-CEM human leukemia cell folylpolyglutamate synthetase (Homo sapiens, UniProt Q05932); assay: Substrate activity for CCRF-CEM folylpolyglutamate synthetase; type: biochemical; details: Table 10
# T1 construct: substrates for human leukemia cell CCRF-CEM folylpolyglutamate synthetase; endogenous in cells; host or cells: CCRF-CEM human leukemia cells
# T1 sequence (Q05932 43-587): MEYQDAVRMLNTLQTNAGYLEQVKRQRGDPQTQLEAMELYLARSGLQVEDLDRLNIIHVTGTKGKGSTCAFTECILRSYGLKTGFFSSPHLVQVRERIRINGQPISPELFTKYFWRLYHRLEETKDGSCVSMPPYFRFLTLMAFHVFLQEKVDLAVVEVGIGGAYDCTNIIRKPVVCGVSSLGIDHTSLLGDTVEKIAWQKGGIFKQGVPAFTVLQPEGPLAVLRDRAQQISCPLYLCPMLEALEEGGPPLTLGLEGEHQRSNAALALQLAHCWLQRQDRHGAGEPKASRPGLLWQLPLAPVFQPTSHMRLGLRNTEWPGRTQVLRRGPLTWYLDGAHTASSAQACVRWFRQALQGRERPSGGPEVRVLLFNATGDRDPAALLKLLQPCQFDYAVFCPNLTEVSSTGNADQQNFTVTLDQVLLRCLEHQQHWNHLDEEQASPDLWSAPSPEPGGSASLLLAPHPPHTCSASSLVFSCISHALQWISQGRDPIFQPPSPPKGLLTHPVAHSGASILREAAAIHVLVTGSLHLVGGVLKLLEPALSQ
# Procedure: Aminopterin is a classical 2,4-diamino antifolate substrate.
# Compounds 33 and 34 were also evaluated for their substrate activity in CCRF-CEM human leukemia folylpolyglutamate synthetase; the compounds were compared against aminopterin.
# FaDu = assay: Growth inhibition of FaDu human squamous carcinoma cell line; type: cell-based; details: Homo sapiens, FaDu; Table 9; continuous (120 hours) exposure; read-out: Growth inhibition EC50, FaDu
# MCF7/ADR-RES = assay: NCI in vitro anti-cancer activity, Breast Cancer; type: cell-based; details: Homo sapiens
# HCC-2998 = assay: NCI in vitro anti-cancer activity, Colon Cancer; type: cell-based; details: Homo sapiens; HCC-2998, Colon Cancer
# CCRF-CEM cells = assay: Growth inhibition of CCRF-CEM human leukemia cells, continuous exposure; type: cell-based; details: Table 8, continuous (0-120 hours) exposure, read-out: Growth inhibition EC50, CCRF-CEM
# L. casei DHFR = L. casei DHFR (Lacticaseibacillus casei, UniProt P00381); assay: Inhibition of Lactobacillus casei DHFR; type: biochemical; details: at […] 10^−5
# Sequence of L. casei DHFR (P00381 whole entry): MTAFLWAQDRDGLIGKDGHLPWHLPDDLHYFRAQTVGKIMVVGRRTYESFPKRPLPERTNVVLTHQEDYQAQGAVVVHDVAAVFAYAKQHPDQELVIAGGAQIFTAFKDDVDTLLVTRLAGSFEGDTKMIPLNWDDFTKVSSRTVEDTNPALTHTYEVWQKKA
SMILES,Vmax(rel) ([1]; relative to aminopterin),Km ([1]; substrate for FPGS) [µM],EC50 (FaDu) [nM],GI50 (MCF7/ADR-RES) [nM],GI50 (HCC-2998) [nM],EC50 (CCRF-CEM cells) [nM],"% inhibition obtained at the stated concentration, L. casei DHFR (L. casei DHFR) [%]"
Nc1nc(N)c2c(CNc3ccc(C(=O)N[C@@H](CCC(=O)O)C(=O)O)cc3)c[nH]c2n1 [Compound 9],0.72 ± 0.07,< 1,22 ± 4,< 10,< 10,12.8 ± 2.2,–
COc1ccc(CCc2cn(Cc3ccccc3)c3nc(N)nc(C)c23)cc1 [Compound 113-118],–,–,–,–,–,–,0
